Laboratory results from the NIST ThermoML archive (doi:10.1016/j.tca.2017.08.010).

Experiment: mn = molality of the nth substance listed, in mol/kg
Conditions: 101 kPa, Liquid, Optical method

Row | SMILES | binary diffusion coefficient (288.15 K, m1 = 0.023) [m2/s] | binary diffusion coefficient (288.15 K, m1 = 0.071) [m2/s] | binary diffusion coefficient (288.15 K, m1 = 0.119) [m2/s] | binary diffusion coefficient (293.15 K, m1 = 0.023) [m2/s] | binary diffusion coefficient (293.15 K, m1 = 0.071) [m2/s] | binary diffusion coefficient (293.15 K, m1 = 0.119) [m2/s] | binary diffusion coefficient (298.15 K, m1 = 0.023) [m2/s] | binary diffusion coefficient (298.15 K, m1 = 0.071) [m2/s] | binary diffusion coefficient (298.15 K, m1 = 0.119) [m2/s] | binary diffusion coefficient (303.15 K, m1 = 0.023) [m2/s] | binary diffusion coefficient (303.15 K, m1 = 0.071) [m2/s] | binary diffusion coefficient (303.15 K, m1 = 0.119) [m2/s] | binary diffusion coefficient (308.15 K, m1 = 0.023) [m2/s] | binary diffusion coefficient (308.15 K, m1 = 0.071) [m2/s] | binary diffusion coefficient (308.15 K, m1 = 0.119) [m2/s] | binary diffusion coefficient (313.15 K, m1 = 0.023) [m2/s] | binary diffusion coefficient (313.15 K, m1 = 0.071) [m2/s] | binary diffusion coefficient (313.15 K, m1 = 0.119) [m2/s] | binary diffusion coefficient (298.15 K, m1 = 0.342) [m2/s]
1 | CN1c2ccccc2Sc2ccccc21 [10-methylphenothiazine] + COC(=O)OC | 9.16e-10 | 6.72e-10 | 8.56e-10 | 1.11e-09 | 8.44e-10 | 1.04e-09 | 1.32e-09 | 1.06e-09 | 1.26e-09 | 1.54e-09 | 1.32e-09 | 1.47e-09 | 1.79e-09 | 1.59e-09 | 1.71e-09 | 2.07e-09 | 1.92e-09 | 1.99e-09 | 
2 | [Cl-].[K+] [potassium chloride] + O |  |  |  |  |  |  |  |  |  |  |  |  |  |  |  |  |  |  | 1.81e-09
